Laboratory results: US20160046618A1, “Cyclopropyl Fused Thiazin-2-Amine Compounds as Beta-Secretase Inhibitors and Methods of Use” (AMGEN INC., priority 2014, published 2016)
Where two headings read alike, the source gives them in different places.

Experiments:
[1] = tested on: Aβ40 in conditioned medium of cells stably expressing Amyloid Precursor Protein (APP); assay: In vitro BACE-1 cell-based assay (Aβ40 sandwich ELISA); settings: read-out: IC50 IP (μM) BACE1 cell
Summary of the method: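 APP-stable cells, pre-cultured 24 h at 37° C in DMEM/10% FBS, were treated 24 h with compound in a 10-point series starting at 100 μM or 10 μM (0.1% DMSO final). Secreted Aβ40 in conditioned medium was measured by pAb40/biotin-6E10 sandwich ELISA with Europium time-resolved fluorescence; IC50 from percent inhibition versus concentration.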

[2] = biological target: Recombinant Cat D (Homo sapiens (Human), UniProt P07339); assay: In vitro enzymatic Cathepsin D (Cat D) FRET assay; format: biochemical
Recombinant Cat D, sequence (P07339 65-412): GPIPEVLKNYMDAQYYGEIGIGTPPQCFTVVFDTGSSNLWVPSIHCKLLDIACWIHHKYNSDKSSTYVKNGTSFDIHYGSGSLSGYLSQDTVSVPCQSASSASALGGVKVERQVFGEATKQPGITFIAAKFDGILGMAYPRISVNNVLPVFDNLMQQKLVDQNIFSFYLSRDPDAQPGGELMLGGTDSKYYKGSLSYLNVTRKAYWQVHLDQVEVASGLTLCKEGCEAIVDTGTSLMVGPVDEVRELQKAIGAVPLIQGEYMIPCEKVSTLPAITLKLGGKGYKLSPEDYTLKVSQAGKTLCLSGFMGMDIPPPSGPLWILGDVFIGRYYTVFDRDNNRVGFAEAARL
Summary of the method: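 CHO-expressed enzyme; buffer 0.05 M citrate pH 3.5, 5 mM CHAPS, 10% DMSO final. Start with FRET substrate 20 nM, 1 h incubation, Tris stop (pH to neutral), fluorescence ex 500 nm/em 580 nm.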

[3] = biological target: human recombinant BACE2 (Homo sapiens (Human), UniProt Q9Y5Z0); assay: In vitro enzymatic BACE2 FRET assay; format: biochemical; settings: read-out: IC50 IP (μM) BACE2 enzyme
human recombinant BACE2, sequence (Q9Y5Z0 63-518): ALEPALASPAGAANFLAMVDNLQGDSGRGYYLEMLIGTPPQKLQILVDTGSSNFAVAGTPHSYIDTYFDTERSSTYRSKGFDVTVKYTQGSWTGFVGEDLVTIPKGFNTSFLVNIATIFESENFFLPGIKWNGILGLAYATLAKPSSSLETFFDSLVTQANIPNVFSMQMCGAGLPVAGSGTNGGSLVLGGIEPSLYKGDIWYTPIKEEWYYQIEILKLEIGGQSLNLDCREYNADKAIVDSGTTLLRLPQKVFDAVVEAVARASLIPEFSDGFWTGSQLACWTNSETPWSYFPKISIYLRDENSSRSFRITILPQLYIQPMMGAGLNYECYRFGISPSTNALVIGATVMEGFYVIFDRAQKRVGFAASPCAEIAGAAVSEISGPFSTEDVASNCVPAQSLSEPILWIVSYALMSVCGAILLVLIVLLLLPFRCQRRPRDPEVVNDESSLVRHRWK
Summary of the method: (§1)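 FRET cleavage assay using Ni-NTA-purified recombinant protease and 50 nM quenched peptide substrate, 1 h. Stopped by neutralising with Tris; fluorescence at 488/590 nm.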

[4] = biological target: human recombinant BACE1 (Homo sapiens (Human), UniProt P56817); assay: In vitro enzymatic BACE1 FRET assay; format: biochemical; settings: read-out: IC50 IP (μM) BACE1 enzyme
human recombinant BACE1, sequence (P56817 46-501): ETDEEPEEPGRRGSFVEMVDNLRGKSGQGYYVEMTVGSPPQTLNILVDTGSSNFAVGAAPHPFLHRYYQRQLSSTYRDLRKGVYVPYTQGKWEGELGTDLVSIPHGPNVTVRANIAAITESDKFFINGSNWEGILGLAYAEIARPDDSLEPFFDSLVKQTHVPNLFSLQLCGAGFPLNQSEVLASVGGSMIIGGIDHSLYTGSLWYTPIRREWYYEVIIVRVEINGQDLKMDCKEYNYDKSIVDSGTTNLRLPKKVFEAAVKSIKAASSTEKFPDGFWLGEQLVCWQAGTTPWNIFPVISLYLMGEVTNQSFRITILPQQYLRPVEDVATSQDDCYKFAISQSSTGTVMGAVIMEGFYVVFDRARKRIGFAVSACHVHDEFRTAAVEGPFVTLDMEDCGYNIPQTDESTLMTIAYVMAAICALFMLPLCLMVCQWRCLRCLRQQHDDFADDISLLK
Summary of the method: as §1

[5] = Cathepsin D FRET enzyme assay, read-out: IC50 IP (μM) CatD

IC50 [1] [µM]	IC50 ([2]; read-out: IC50 IP (μM) CatD) [µM]	IC50 [3] [µM]	IC50 [4] [nM]	IC50 ([1]; BACE1 cell-based assay) [µM]	IC50 [2, 5] [µM]	IC50 ([2]; first procedure (FRET), read-out: Cat D IC50) [µM]	IC50 ([3]; BACE2 FRET enzyme assay) [µM]	IC50 ([4]; BACE1 FRET enzyme assay) [nM]	Compound
0.00356	880	0.00522	0.628						C[C@]1(c2cc(NC(=O)c3cnc(OCc4ncco4)cn3)cc(F)c2F)N=C(N)S[C@@]2(S(C)(=O)=O)C[C@H]21 [Example 746, N-(3-((1R,5S,6S)-3-amino-5-methyl-1-(methylsulfonyl)-2-thia-4-azabicyclo[4.1.0]hept-3-en-5-yl)-4,5-difluorophenyl)-5-(1,3-oxazol-2-ylmethoxy)-2-pyrazinecarboxamide]
0.287	95.1	0.0358	1.75						C[C@]1(c2cc(Nc3nccc4nc(OCc5ncccc5F)cnc34)cc(F)c2F)N=C(N)S[C@@]2(C(F)F)C[C@@H]12 [Example 873, N-(3-((1S,5S,6S)-3-amino-1-(difluoromethyl)-5-methyl-2-thia-4-azabicyclo[4.1.0]hept-3-en-5-yl)-4,5-difluorophenyl)-2-((3-fluoro-2-pyridinyl)methoxy)pyrido[3,4-b]pyrazin-5-amine]
				0.00995	755	> 400	0.00163	2.35	COC[C@]12C[C@H]1[C@@](CF)(c1cc(NC(=O)c3ccc(Cl)cn3)cc(F)c1F)N=C(N)S2 [Example 43, N-(3-((1S,5S,6S)-3-amino-5-(fluoromethyl)-1-(methoxymethyl)-2-thia-4-azabicyclo[4.1.0]hept-3-en-5-yl)-4,5-difluorophenyl)-5-chloro-2-pyridinecarboxamide]
0.214	1060	0.878	17.4						COC[C@]12C[C@H]1[C@@](C)(c1cc(NC(=O)c3cnc(OCC(C)(C)C)cn3)cc(F)c1F)N=C(N)S2 [Example 1069, N-(3-((1S,5S,6S)-3-amino-1-(methoxymethyl)-5-methyl-2-thia-4-azabicyclo[4.1.0]hept-3-en-5-yl)-4,5-difluorophenyl)-5-(neopentyloxy)pyrazine-2-carboxamide]
0.111	> 400	0.095	3.99						C[C@]1(c2cc(NC(=O)c3ccc(OCC(F)(F)F)cn3)cc(F)c2F)N=C(N)S[C@@]2(C#N)C[C@H]21 [Example 1012, N-(3-((1S,5S,6S)-3-amino-1-cyano-5-methyl-2-thia-4-azabicyclo[4.1.0]hept-3-en-5-yl)-4,5-difluorophenyl)-5-(2,2,2-trifluoroethoxy)-2-pyridinecarboxamide]
0.0331	> 400	0.579	5.72						COC[C@]12C[C@H]1[C@@](C)(c1cc(NC(=O)c3cnc(OCC4COC4)cn3)cc(F)c1F)N=C(N)S2 [Example 1022, N-(3-((1S,5S,6S)-3-amino-1-(methoxymethyl)-5-methyl-2-thia-4-azabicyclo[4.1.0]hept-3-en-5-yl)-4,5-difluorophenyl)-5-(3-oxetanylmethoxy)-2-pyrazinecarboxamide]
0.00177	1040	0.0236	0.943						C#CCOc1cnc2c(Nc3ccc(F)c([C@@]4(C)N=C(N)S[C@@]5([C@H](O)C(F)(F)F)C[C@H]54)c3)nccc2n1 [Example 671, (1R)-1-((1S,5S,6S)-3-amino-5-(2-fluoro-5-((2-(2-propyn-1-yloxy)pyrido[3,4-b]pyrazin-5-yl)amino)phenyl)-5-methyl-2-thia-4-azabicyclo[4.1.0]hept-3-en-1-yl)-2,2,2,-trifluoroethanol]
0.04	354	0.0662	1.2						CC#C[C@]12C[C@H]1[C@@](CF)(c1cc(Nc3nccc4nc(OCc5ncco5)cnc34)ccc1F)N=C(N)S2 [Example 958, N-(3-((1S,5S,6S)-3-amino-5-(fluoromethyl)-1-(1-propyn-1-yl)-2-thia-4-azabicyclo[4.1.0]hept-3-en-5-yl)-4-fluorophenyl)-2-(1,3-oxazol-2-ylmethoxy)pyrido[3,4-b]pyrazin-5-amine]
0.00736	172	0.174	1.51						CC(C)(CF)NC(=O)[C@]12C[C@H]1[C@@](C)(c1cc(NC(=O)c3cnc(OCC(F)(F)F)cn3)ccc1F)N=C(N)S2 [Example 983, (1S,5S,6S)-3-amino-N-(1-fluoro-2-methylpropan-2-yl)-5-(2-fluoro-5-(5-(2,2,2-trifluoroethoxy)pyrazine-2-carboxamido)phenyl)-5-methyl-2-thia-4-azabicyclo[4.1.0]hept-3-ene-1-carboxamide]
0.055	379	< 0.00203	5.99						COC[C@@]12SC(N)=N[C@](C)(c3cc(NC(=O)c4ccc(Cl)cn4)ccc3F)[C@@H]1C2(F)F [Example 710, N-(3-((1S,5S,6R)-3-amino-7,7-difluoro-1-(methoxymethyl)-5-methyl-2-thia-4-azabicyclo[4.1.0]hept-3-en-5-yl)-4-fluorophenyl)-5-chloro-2-pyridinecarboxamide]
0.00589	492	0.356	0.059						COC[C@H](C)Oc1cnc(C(=O)Nc2ccc(F)c([C@@]3(C)N=C(N)S[C@@]4(C(=O)NC5CC5)C[C@H]43)c2)cn1 [Example 1001, (1S,5S,6S)-3-amino-N-cyclopropyl-5-(2-fluoro-5-(((5-((1S)-2-methoxy-1-methylethoxy)-2-pyrazinyl)carbonyl)amino)phenyl)-5-methyl-2-thia-4-azabicyclo[4.1.0]hept-3-ene-1-carboxamide]
0.022	1330	0.498	7.9						COC[C@]12C[C@H]1[C@@](C)(c1cc(NC(=O)c3cnc(OCC4COC4)cn3)ccc1F)N=C(N)S2 [Example 1055, N-(3-((1S,5S,6S)-3-amino-1-(methoxymethyl)-5-methyl-2-thia-4-azabicyclo[4.1.0]hept-3-en-5-yl)-4-fluorophenyl)-5-(3-oxetanylmethoxy)-2-pyrazinecarboxamide]
0.00126	116	< 0.0061	0.22						C#CCOc1cnc(C(=O)Nc2ccc(F)c([C@@]3(CF)N=C(N)S[C@@]4(c5cnco5)C[C@@H]34)c2)cn1 [Example 780, N-(3-((1S,5S,6S)-3-amino-5-(fluoromethyl)-1-(1,3-oxazol-5-yl)-2-thia-4-azabicyclo[4.1.0]hept-3-en-5-yl)-4-fluorophenyl)-5-(2-propyn-1-yloxy)-2-pyrazinecarboxamide]
				0.0162	> 400		0.00187	3.18	COC[C@]12C[C@H]1[C@@](CF)(c1cc(Nc3nccc4cc(C#N)cnc34)cc(F)c1F)N=C(N)S2 [Example 47, 8-((3-((1S,5S,6S)-3-amino-5-(fluoromethyl)-1-(methoxymethyl)-2-thia-4-azabicyclo[4.1.0]hept-3-en-5-yl)-4,5-difluorophenyl)amino)-1,7-naphthyridine-3-carbonitrile]
0.274	1500	0.693	32.5						COC[C@]12C[C@H]1[C@@](C)(c1cc(Nc3nccc4cc(OCc5nccs5)cnc34)cc(F)c1F)N=C(N)S2 [Example 737, N-(3-((1S,5S,6S)-3-amino-1-(methoxymethyl)-5-methyl-2-thia-4-azabicyclo[4.1.0]hept-3-en-5-yl)-4,5-difluorophenyl)-3-(1,3-thiazol-2-ylmethoxy)-1,7-naphthyridin-8-amine]
